Test results taken from US10669272B2, “Substituted naphthyridinone compounds useful as T cell activators” (BRISTOL-MYERS SQUIBB COMPANY, priority 2018, dated 2020).
Like-named read-outs stand apart in the source and are kept apart here.

Key:
human DGKζ = biological target: T1, human DGKζ (Homo sapiens, UniProt Q13574); assay: DGKζ LIPGLO assay (extruded liposome substrate), in vitro DGK inhibition; type: biochemical; details: read-out: DGKz LIPGLO IC50
T1 construct: TVMV protease cleavage site (C); Hexa-His (C); made in house; host or cells: Sf9 insect cells (baculovirus, Bac-to-Bac)
T1 sequence (Q13574 with tags, fused parts or gaps isoform Q13574-4): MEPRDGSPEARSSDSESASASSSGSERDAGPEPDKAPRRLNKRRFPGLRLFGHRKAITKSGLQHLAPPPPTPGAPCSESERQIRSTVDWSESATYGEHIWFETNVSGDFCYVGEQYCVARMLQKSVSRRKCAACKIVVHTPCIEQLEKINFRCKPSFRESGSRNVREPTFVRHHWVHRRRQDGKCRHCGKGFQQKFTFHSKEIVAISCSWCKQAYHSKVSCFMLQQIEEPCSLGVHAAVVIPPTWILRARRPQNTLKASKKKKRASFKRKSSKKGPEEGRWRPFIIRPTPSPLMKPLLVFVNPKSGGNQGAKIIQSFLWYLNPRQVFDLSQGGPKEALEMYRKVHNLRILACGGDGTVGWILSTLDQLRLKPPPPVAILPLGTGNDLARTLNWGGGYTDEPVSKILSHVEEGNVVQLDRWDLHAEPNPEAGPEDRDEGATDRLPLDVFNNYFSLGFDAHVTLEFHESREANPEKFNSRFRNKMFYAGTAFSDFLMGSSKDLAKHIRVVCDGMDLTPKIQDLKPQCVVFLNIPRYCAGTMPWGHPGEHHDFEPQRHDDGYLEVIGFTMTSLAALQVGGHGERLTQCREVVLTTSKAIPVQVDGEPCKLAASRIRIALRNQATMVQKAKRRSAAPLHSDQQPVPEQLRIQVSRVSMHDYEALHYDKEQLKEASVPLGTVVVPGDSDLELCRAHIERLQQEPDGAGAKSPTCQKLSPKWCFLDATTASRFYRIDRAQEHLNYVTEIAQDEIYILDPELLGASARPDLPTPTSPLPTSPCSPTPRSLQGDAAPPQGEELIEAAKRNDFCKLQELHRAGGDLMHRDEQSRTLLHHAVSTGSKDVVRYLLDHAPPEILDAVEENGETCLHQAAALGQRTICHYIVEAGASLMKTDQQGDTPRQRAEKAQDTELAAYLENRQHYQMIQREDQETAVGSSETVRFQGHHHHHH

human DGKα = biological target: T2, human DGKα (Homo sapiens, UniProt P23743); assay: DGKα LIPGLO assay (extruded liposome substrate), in vitro DGK inhibition; type: biochemical; details: read-out: DGKa LIPGLO IC50
T2 construct: TVMV protease cleavage site (C); Hexa-His (C); made in house; host or cells: Sf9 insect cells (baculovirus, Bac-to-Bac)
T2 sequence (P23743 with tags, fused parts or gaps): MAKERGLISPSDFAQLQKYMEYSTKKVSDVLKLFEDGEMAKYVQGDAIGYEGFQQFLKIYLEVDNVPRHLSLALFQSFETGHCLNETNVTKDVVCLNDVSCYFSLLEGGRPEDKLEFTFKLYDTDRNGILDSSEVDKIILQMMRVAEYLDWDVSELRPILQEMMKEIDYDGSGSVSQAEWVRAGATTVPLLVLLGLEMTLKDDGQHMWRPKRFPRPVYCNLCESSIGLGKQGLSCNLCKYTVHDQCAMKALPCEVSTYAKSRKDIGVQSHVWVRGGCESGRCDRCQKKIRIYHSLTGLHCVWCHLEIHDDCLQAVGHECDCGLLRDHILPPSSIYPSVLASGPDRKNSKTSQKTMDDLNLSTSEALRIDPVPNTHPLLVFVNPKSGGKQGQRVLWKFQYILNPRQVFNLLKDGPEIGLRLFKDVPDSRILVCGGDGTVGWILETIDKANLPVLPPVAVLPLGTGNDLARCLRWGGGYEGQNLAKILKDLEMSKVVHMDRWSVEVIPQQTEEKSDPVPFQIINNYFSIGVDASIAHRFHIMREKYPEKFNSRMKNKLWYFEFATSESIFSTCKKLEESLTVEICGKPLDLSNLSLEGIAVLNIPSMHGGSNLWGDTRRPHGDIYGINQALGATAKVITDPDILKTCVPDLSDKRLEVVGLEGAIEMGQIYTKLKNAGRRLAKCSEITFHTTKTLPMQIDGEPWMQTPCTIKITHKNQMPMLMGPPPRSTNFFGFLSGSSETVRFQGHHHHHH

SMILES | IC50 (human DGKζ; DGKζ liposome (LIPGLO) assay) | IC50 (human DGKα; DGKα liposome (LIPGLO) assay) | IC50 (human DGKζ; liposome (LIPGLO) assay) | IC50 (human DGKα; liposome (LIPGLO) assay)
C[C@@H]1CN(c2cc(=O)n(C)c3ccc(C#N)nc23)[C@@H](C)CN1C(c1ccc(F)cc1)c1nnc(C2CC2)s1 (single isomer, unassigned) [Example 775] | 6600 nM | 5800 nM | – | –
C[C@@H]1CN(c2cc(=O)n(C)c3ccc(C#N)nc23)[C@@H](C)CN1C(c1ccc(F)cc1)c1nc(C(C)(C)C)co1 (single isomer, unassigned) [Example 778] | 340 nM | 150 nM | – | –
CC(c1ccc(F)cc1)N1C[C@H](C)N(c2c(C#N)c(=O)n(C)c3ccc(C#N)nc23)C[C@H]1C (single isomer, unassigned) [Example 783] | > 250000 nM | 1200 nM | – | –
CC(c1ccc(Br)cc1)N1C[C@H](C)N(c2c(C#N)c(=O)n(C)c3ccc(C#N)nc23)C[C@H]1C (single isomer, unassigned) [Example 789] | 7000 nM | 1200 nM | – | –
CC(c1ccc(Br)cc1)N1C[C@H](C)N(c2c(C#N)c(=O)n(C)c3ccc(C#N)nc23)C[C@H]1C (single isomer, unassigned) [Example 790] | > 250000 nM | 610 nM | – | –
COC(=O)c1ccc(C(C)N2C[C@H](C)N(c3c(C#N)c(=O)n(C)c4ccc(C#N)nc34)C[C@H]2C)cc1 (single isomer, unassigned) [Example 793] | 11000 nM | 6900 nM | – | –
COC(=O)c1ccc(C(C)N2C[C@H](C)N(c3c(C#N)c(=O)n(C)c4ccc(C#N)nc34)C[C@H]2C)cc1 (single isomer, unassigned) [Example 794] | 120000 nM | 24000 nM | – | –
C[C@@H]1CN(c2c(C#N)c(=O)n(C)c3ccc(C#N)nc23)[C@@H](C)CN1C(c1ccc(F)cc1)c1ccc(C(F)(F)F)cn1 (single isomer, unassigned) [Example 837] | 35000 nM | 5700 nM | – | –
C[C@@H]1CN(c2c(C#N)c(=O)n(C)c3ccc(C#N)nc23)[C@@H](C)CN1C(c1ccc(F)cc1)c1cn(C)cn1 (single isomer, unassigned) [Example 852] | 5700 nM | 1300 nM | – | –
C[C@@H]1CN(c2c(C#N)c(=O)n(C)c3ccc(C#N)nc23)[C@@H](C)CN1C(c1ccc(F)cc1)c1ccns1 (single isomer, unassigned) [Example 855] | 20000 nM | 27000 nM | – | –
C[C@@H]1CN(c2c(C#N)c(=O)n(C)c3ccc(C#N)nc23)[C@@H](C)CN1C(c1ccc(F)cc1)c1cscn1 (single isomer, unassigned) [Example 856] | 5600 nM | 330 nM | – | –
Cc1cc(C(c2ccc(F)cc2)N2C[C@H](C)N(c3c(C#N)c(=O)n(C)c4ccc(C#N)nc34)C[C@H]2C)no1 (single isomer, unassigned) [Example 865] | 14000 nM | 18000 nM | – | –
C[C@@H]1CN(c2c(C#N)c(=O)n(C)c3ccc(C#N)nc23)[C@@H](C)CN1C(c1ccc(F)cc1)c1cc(C2CC2)on1 (single isomer, unassigned) [Example 869] | 14000 nM | 17000 nM | – | –
C[C@@H]1CN(c2c(C#N)c(=O)n(C)c3ccc(C#N)nc23)CCN1C(c1ccc(Cl)cc1)c1ccc(C#N)cc1 (single isomer, unassigned) [Example 872] | 1400 nM | 1500 nM | – | –
C[C@@H]1CN(c2c(C#N)c(=O)n(C)c3ccc(C#N)nc23)CCN1C(c1ccc(Cl)cc1)c1ccc(C#N)cc1 (single isomer, unassigned) [Example 873] | 7200 nM | 2600 nM | – | –
C[C@@H]1CN(c2c(C#N)c(=O)n(C)c3ccc(C#N)nc23)CCN1C(c1ccc(Cl)cc1)c1ccc(F)cn1 (single isomer, unassigned) [Example 900] | 800 nM | 2600 nM | – | –
C[C@@H]1CN(c2c(C#N)c(=O)n(C)c3ccc(C#N)nc23)CCN1C(c1ccc(Cl)cc1)c1ccc(F)cn1 (single isomer, unassigned) [Example 901] | 1700 nM | 390 nM | – | –
Cc1ccc(C(c2cccc(F)c2)N2CCN(c3c(C#N)c(=O)n(C)c4ccc(C#N)nc34)C[C@H]2C)nc1 (single isomer, unassigned) [Example 912] | 580 nM | 2100 nM | – | –
C[C@@H]1CN(c2c(C#N)c(=O)n(C)c3ccc(C#N)nc23)CCN1C(c1ccc(F)cc1)c1cccc2c1OC(C)(C)C2 (single isomer, unassigned) [Example 934] | 5400 nM | 8600 nM | – | –
C[C@@H]1CN(c2c(C#N)c(=O)n(C)c3ccc(C#N)nc23)CCN1C(c1ccc(F)cc1)c1cccc2c1OC(C)(C)C2 (single isomer, unassigned) [Example 935] | 1800 nM | 1900 nM | – | –
Cc1ccc(C(c2ccc(Cl)cn2)N2CCN(c3c(C#N)c(=O)n(C)c4ccc(C#N)nc34)C[C@H]2C)cc1 (single isomer, unassigned) [Example 936] | 3300 nM | 1000 nM | – | –
Cc1ccc(C(c2ccc(Cl)cn2)N2CCN(c3c(C#N)c(=O)n(C)c4ccc(C#N)nc34)C[C@H]2C)cc1 (single isomer, unassigned) [Example 937] | 1100 nM | 340 nM | – | –

SMILES | IC50 (human DGKζ; DGKζ liposome (LIPGLO) assay) | IC50 (human DGKα; DGKα liposome (LIPGLO) assay) | IC50 (human DGKζ; liposome (LIPGLO) assay) | IC50 (human DGKα; liposome (LIPGLO) assay)
CC(c1ccccn1)N1CCN(c2c(C#N)c(=O)n(C)c3ccc(C#N)nc23)C[C@H]1C (single isomer, unassigned) [Example 965] | 60000 nM | 960 nM | – | –
CC(c1cccc(C(F)(F)F)c1)N1CCN(c2c(C#N)c(=O)n(C)c3ccc(C#N)nc23)C[C@H]1C (single isomer, unassigned) [Example 971] | 4900 nM | 1800 nM | – | –
CC(c1cccc(C(F)(F)F)c1)N1CCN(c2c(C#N)c(=O)n(C)c3ccc(C#N)nc23)C[C@H]1C (single isomer, unassigned) [Example 972] | 15000 nM | 20000 nM | – | –
CC(c1ccc(Cl)cc1)N1CCN(c2c(C#N)c(=O)n(C)c3ccc(C#N)nc23)C[C@H]1C (single isomer, unassigned) [Example 978] | 4900 nM | 1300 nM | – | –
CCC(c1ccc(OC(F)(F)F)cc1F)N1C[C@H](CC)N(c2cc(=O)n(C)c3ccc(C#N)nc23)C[C@H]1CC (single isomer, unassigned) [Example 1057] | – | – | 40 nM | 23 nM
CCC(c1ccc(OC(F)(F)F)cc1F)N1C[C@H](CC)N(c2cc(=O)n(C)c3ccc(C#N)nc23)C[C@H]1CC (single isomer, unassigned) [Example 1058] | – | – | 570 nM | 750 nM
CCC(c1ccc(OC(F)(F)F)cc1)N1C[C@H](CC)N(c2cc(=O)n(C)c3ccc(C#N)nc23)C[C@H]1CC (single isomer, unassigned) [Example 1059] | – | – | 44 nM | 9 nM
CC[C@@H]1CN(c2cc(=O)n(C)c3ccc(C#N)nc23)[C@@H](C)CN1C(C)c1ccc(F)cc1F (single isomer, unassigned) [Example 1087] | – | – | 86 nM | 72 nM
CC[C@@H]1CN(c2cc(=O)n(C)c3ccc(C#N)nc23)[C@@H](C)CN1C(C)c1ccc(F)cc1F (single isomer, unassigned) [Example 1088] | – | – | 4900 nM | 3400 nM
CC[C@@H]1CN(c2cc(=O)n(C)c3ccc(C#N)nc23)[C@@H](C)CN1C(C)c1c(F)cc(F)cc1F (single isomer, unassigned) [Example 1089] | – | – | 120 nM | 510 nM
CC[C@@H]1CN(c2cc(=O)n(C)c3ccc(C#N)nc23)[C@@H](C)CN1C(C)c1c(F)cc(F)cc1F (single isomer, unassigned) [Example 1090] | – | – | 1800 nM | 4100 nM
CC[C@@H]1CN(c2cc(=O)n(C)c3ccc(C#N)nc23)[C@@H](C)CN1C(C)c1ccc(C(F)(F)F)cc1 (single isomer, unassigned) [Example 1094] | – | – | 2100 nM | 460 nM
CC[C@@H]1CN(c2cc(=O)n(C)c3ccc(C#N)nc23)[C@@H](C)CN1C(C)c1ccc(OC(F)(F)F)cc1F (single isomer, unassigned) [Example 1095] | – | – | 18 nM | 27 nM
CC[C@@H]1CN(c2cc(=O)n(C)c3ccc(C#N)nc23)[C@@H](C)CN1C(C)c1ccc(OC(F)(F)F)cc1F (single isomer, unassigned) [Example 1096] | – | – | 1400 nM | 2200 nM
CC[C@@H]1CN(c2cc(=O)n(C)c3ccc(C#N)nc23)[C@@H](C)CN1C(c1cccc(F)c1)c1ccc(F)cn1 (single isomer, unassigned) [Example 1108] | – | – | 90 nM | 31 nM
CC[C@H]1CN(C(c2ccc(C)cc2)c2ccc(Cl)cc2)[C@H](C)CN1c1cc(=O)n(C)c2ccc(C#N)nc12 (single isomer, unassigned) [Example 1121] | – | – | 2700 nM | 1800 nM
CC[C@H]1CN(C(c2ccc(C)cc2)c2ccc(Cl)cc2)[C@H](C)CN1c1cc(=O)n(C)c2ccc(C#N)nc12 (single isomer, unassigned) [Example 1122] | – | – | 840 nM | 710 nM
COC[C@@H]1CN(c2cc(=O)n(C)c3ccc(C#N)nc23)[C@@H](C)CN1C(C)c1ccc(OC(F)(F)F)cc1 (single isomer, unassigned) [Example 1162] | – | – | 550 nM | 480 nM
COC[C@@H]1CN(c2cc(=O)n(C)c3ccc(C#N)nc23)[C@@H](C)CN1C(C)c1ccc(OC(F)(F)F)cc1 (single isomer, unassigned) [Example 1163] | – | – | 7500 nM | 10000 nM
C[C@@H]1CN(C(c2ccc(F)cc2)c2ccc(C#N)cc2)[C@@H](CO)CN1c1cc(=O)n(C)c2ccc(C#N)nc12 (single isomer, unassigned) [Example 1176] | – | – | 2900 nM | 12000 nM
C[C@@H]1CN(C(c2ccc(F)cc2)c2ccc(C#N)cc2)[C@@H](CO)CN1c1cc(=O)n(C)c2ccc(C#N)nc12 (single isomer, unassigned) [Example 1177] | – | – | 620 nM | 10000 nM
CC(c1ccc(OC(F)(F)F)cc1)N1C[C@@H](C)N(c2cc(=O)n(C)c3ccc(C#N)nc23)C[C@@H]1CO (single isomer, unassigned) [Example 1180] | – | – | 1400 nM | 7600 nM
